Experimental data taken from US8507488B2, “Fused nitrogen containing heterocycles and compositions thereof as kinase inhibitors” (IRM LLC, priority 2008, dated 2013).
pIC50: −log10 of the molar value.

What was measured:
Tel-TrkB = molecular target: T1, Tel-TrkB (Homo sapiens, UniProt Q16620); test: Inhibition of proliferation of Ba/F3 cells expressing Tel-TrkB (BaF3/Tel-TrkB); type: cell-based; settings: Ba/F3 Tel-TrkB cells; read-out: Ba/F3 Tel-TrkB IC 50
T1 construct: dimerization domain of Tel (ETV6) transcription factor (fusion partner, human ETV6 P41212); expressed in transfected cells; host or cells: luciferase expressing Ba/F3 murine hematopoietic progenitor cells; the other entry of the earlier key: ETV6 (P41212, Transcription factor ETV6)
Method in brief: (§1)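 Luciferase-expressing murine Ba/F3 cells transformed with human Tel-TrkA or Tel-TrkB, plated at 2000 cells/well in IL3-free RPMI/10% FBS. Exposed to 12 concentrations of 3-fold serially diluted compound for 48 hours at 37° C, 5% CO2. Bright Glo luminescence read-out, with IC50 from linear regression of percent inhibition.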

parental BaF3 cells = test: Proliferation of parental (untransformed) Ba/F3 cells maintained with IL3; type: cell-based, murine; settings: Mus musculus, BaF3, parental Ba/F3 cells; read-out: Ba/F3 IC 50
Method in brief: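 Untransformed murine Ba/F3 cells kept in RPMI/10% FCS with 5 ng/ml murine IL3, plated at 2000 cells/well and exposed to 12 concentrations of compound for 48 h at 37 °C. Viability read by Bright-Glo luciferase luminescence; IC50 from linear regression of % inhibition.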

[1] = molecular target: T2, full length rTrkA and mNGF (Rattus norvegicus, UniProt P35739); test: Inhibition of proliferation of Ba/F3 cells co-expressing full length rTrkA and mNGF (BaF3/TrkA-NFG); type: cell-based; settings: BaF3 TRKA-NGF cells, CTG readout
T2 construct: co-expressing full length rTrkA and mNGF; expressed in transfected cells; host or cells: Ba/F3 cells

KM12 luc = KM12 luc cell proliferation assay (Table 8); type: cell-based; settings: KM12 luc cells; read-out: KM12 luc IC 50
Tel-TrkA = molecular target: T3, Tel-TrkA (Homo sapiens, UniProt P04629); test: Inhibition of proliferation of Ba/F3 cells expressing Tel-TrkA (BaF3/Tel-TrkA, luciferase/Bright Glo readout); type: cell-based; settings: read-out: Ba/F3 Tel-TrkA IC 50
T3 construct: dimerization domain of Tel (ETV6) transcription factor (fusion partner, human ETV6 P41212); expressed in transfected cells; host or cells: luciferase expressing Ba/F3 murine hematopoietic progenitor cells; the other entry of the earlier key: ETV6 (P41212, Transcription factor ETV6)
Method in brief: as §1

Tel-TrkC = molecular target: T4, Tel-TrkC (Homo sapiens, UniProt Q16288); test: Inhibition of proliferation of Ba/F3 cells expressing Tel-TrkC (BaF3/Tel-TrkC); type: cell-based; settings: read-out: Ba/F3 Tel-TrkC IC 50
T4 construct: The cells also express luciferase as the viability read-out; it is not fused to the kinase; P41212 (Transcription factor ETV6)
Method: Test compounds were dissolved in DMSO (10 mM) and transferred into 1.4 mL flat bottom or V-shaped Matrix tubes carrying a unique 2D matrix chip by individual compound hubs. The numbers of these chips were distinctively linked to the individual compound identification numbers. The stock solutions were stored at −20° C. if not used immediately. For the test procedure the vials were defrosted and identified by a scanner whereby a working sheet is generated that guides the subsequent working steps.
Compound dilutions were made in 384 well plates. This format enabled the assay of maximally 28 individual test compounds at 12 concentrations (single points) including 2 reference compounds. The dilution protocol included the production of pre-dilution plates, master plates and assay plates: • Compound plates: 30 μL of individual compound (10 mM) DMSO solution including standard compound were transferred into columns 1 and 13 of a 384 well plate. 20 μL of DMSO were added to the rest of the wells and the compounds were serially diluted (1:3) by transferring 10 μL from a well in column 1 or 13 to the next well in column 2 or 14 respectively and successively with the help of a Minitrack robot. • Assay plates: Identical assay plates were then prepared by adding […] each of compound dilutions of the compound plates into 384-well “assay plates”. In the following the compounds were mixed with 50 μL of assays components (cells or enzyme) and tested for their inhibitory activity.
Compounds of Formula (I) were tested for their antiproliferative effect on Ba/F3 cells expressing either Tel-TrkA, Tel-TrkB or Tel-TrkC and an additional panel of 34 selected diverse kinases activated by fusion to the dimerizing partners Bcr or Tel (Abl, A1K, BMX, EphA3, EphB2, FGFR2, FGFR3, FGFR4, FGR, FLT1, FLT3, FLT4, FMS, IGF1R, InsR, JAK1, JAK2, JAK3, KDR, Kit, Lck, Lyn, MER, MET, PDGFRb, RET, RON, Ros-1, Src, Aurora, TIE2, TYK2, Tie1, ZAP70). The antiproliferative effect of these compounds on the different cell lines and on the non transformed cells were tested at 12 different concentrations of 3-fold serially diluted compounds in 384 well plates as described above (in media lacking IL3). The IC50 values of the compounds the different cell lines were determined from dose response curves.
The cell line used is the luciferase expressing Ba/F3 murine hematopoietic progenitor cell line transformed with human Tel-TrkA, Tel-TrkB or Tel-TrkC cDNAs (Ba/F3 EN A/B/C). These cells maintained in RPMI/10% fetal bovine serum (RPMI/FCS) supplemented with penicillin 50 mg/mL, streptomycin 50 mg/mL and L-glutamine […]. Untransformed Ba/F3 cells were similarly maintained with the addition 5 ng/ml of murine recombinant IL3. 50 μl of a Ba/F3 or Ba/F3 EN A/B/C cell suspension were plated in Greiner 384 well microplates (white)) at a density of 2000 cells per well. 50 nl of serially diluted test compound (10-0.0001 mM in DMSO solution) is added to each well. The cells were incubated for 48 hours at 37° C., 5% CO2. 25 μl of Bright Glo® (Promega) luciferase substrate is added to each well. The emited luminiscence is quantified using the ACQUEST™ luminescence system (Molecular Devices). IC50 values were calculated by linear regression analysis of the percentage inhibition of each compound at 12 concentrations.

T3 sequence (P04629 510-796 limits assumed): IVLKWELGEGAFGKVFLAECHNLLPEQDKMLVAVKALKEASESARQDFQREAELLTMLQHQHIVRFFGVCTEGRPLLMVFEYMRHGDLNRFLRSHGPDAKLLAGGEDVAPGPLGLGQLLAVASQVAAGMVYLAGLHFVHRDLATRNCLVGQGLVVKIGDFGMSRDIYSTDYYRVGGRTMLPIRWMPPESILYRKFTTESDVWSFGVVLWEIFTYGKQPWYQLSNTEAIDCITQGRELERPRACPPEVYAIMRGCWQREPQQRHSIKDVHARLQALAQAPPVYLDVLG
T4 sequence (Q16288 whole entry, the tested form may be a part): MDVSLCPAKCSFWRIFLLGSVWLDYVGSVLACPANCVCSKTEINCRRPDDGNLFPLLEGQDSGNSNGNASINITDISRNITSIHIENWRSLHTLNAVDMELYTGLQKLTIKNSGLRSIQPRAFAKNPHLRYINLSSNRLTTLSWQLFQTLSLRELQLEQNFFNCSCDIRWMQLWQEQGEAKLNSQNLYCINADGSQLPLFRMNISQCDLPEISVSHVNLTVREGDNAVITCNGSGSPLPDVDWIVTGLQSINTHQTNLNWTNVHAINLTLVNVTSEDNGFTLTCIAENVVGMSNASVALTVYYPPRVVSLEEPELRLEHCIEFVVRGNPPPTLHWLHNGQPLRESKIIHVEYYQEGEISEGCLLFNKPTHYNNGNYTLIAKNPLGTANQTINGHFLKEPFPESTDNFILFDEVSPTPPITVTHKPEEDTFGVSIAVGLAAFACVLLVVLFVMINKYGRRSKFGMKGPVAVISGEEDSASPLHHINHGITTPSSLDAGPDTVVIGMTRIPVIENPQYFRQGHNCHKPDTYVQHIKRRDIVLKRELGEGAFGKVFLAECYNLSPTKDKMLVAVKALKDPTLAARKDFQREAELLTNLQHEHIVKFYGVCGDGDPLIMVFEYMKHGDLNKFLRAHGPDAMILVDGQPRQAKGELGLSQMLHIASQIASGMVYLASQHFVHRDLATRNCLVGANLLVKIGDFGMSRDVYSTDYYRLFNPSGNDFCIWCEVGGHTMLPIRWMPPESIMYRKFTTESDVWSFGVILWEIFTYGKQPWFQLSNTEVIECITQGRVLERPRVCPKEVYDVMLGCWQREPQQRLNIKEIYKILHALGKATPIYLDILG
T1 sequence (Q16620 538-822 limits assumed): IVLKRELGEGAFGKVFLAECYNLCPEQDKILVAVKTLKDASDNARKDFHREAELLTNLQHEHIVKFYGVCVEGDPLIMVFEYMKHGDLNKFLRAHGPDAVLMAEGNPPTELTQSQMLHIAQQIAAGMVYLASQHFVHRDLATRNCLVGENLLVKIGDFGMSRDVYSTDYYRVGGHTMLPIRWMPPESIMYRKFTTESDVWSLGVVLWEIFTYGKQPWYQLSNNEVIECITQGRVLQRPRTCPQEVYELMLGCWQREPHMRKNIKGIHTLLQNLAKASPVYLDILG
T2 sequence (P35739 33-799): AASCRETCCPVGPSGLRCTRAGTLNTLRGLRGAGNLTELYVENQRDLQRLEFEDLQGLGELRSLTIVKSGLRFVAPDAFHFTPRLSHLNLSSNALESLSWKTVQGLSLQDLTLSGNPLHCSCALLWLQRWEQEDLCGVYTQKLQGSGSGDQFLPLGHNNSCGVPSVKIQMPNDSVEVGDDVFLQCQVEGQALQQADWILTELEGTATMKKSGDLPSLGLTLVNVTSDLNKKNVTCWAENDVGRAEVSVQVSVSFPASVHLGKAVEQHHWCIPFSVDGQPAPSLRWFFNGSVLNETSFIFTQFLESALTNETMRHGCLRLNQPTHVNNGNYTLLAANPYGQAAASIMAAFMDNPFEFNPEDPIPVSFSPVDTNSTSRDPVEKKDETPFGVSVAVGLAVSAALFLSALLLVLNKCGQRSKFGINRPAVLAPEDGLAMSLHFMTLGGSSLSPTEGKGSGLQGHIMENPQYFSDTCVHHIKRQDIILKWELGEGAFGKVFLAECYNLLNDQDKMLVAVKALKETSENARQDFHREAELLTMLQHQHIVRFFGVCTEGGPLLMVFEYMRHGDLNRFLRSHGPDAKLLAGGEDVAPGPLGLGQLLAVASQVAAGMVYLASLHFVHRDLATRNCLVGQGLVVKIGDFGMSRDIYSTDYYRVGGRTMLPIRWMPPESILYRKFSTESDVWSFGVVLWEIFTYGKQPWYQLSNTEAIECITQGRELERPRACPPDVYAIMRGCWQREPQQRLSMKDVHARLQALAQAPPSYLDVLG
T2 sequence (P01139 122-241 partner): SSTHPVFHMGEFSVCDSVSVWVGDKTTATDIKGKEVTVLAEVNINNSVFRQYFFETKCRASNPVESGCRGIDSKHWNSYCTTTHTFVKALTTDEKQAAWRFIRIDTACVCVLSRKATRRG

`N#Cc1cccc(-c2cnc3ccc(N4CCCC4c4ccccc4)nn23)c1` (stereo not drawn) [Table 3-Compound 54] was tested, and the pIC50 (Tel-TrkB) was 7.39, the pIC50 (parental BaF3 cells) was less than 5.00 and the “BaF3 TRKA-NGF CTG IC 50” value [1] was 111 nM. The pIC50 (KM12 luc) was 7.03, the pIC50 (Tel-TrkA) was 7.07 and the pIC50 (Tel-TrkC) was 7.77.

`Fc1cccc(C2CCCCN2c2ccc3ncc(-c4ccc(N5CCOCC5)nc4)n3n2)c1` (stereo not drawn) [Table 3-Compound 58] was tested, and the pIC50 (Tel-TrkB) was 7.31, the pIC50 (parental BaF3 cells) was 5.12 and the “BaF3 TRKA-NGF CTG IC 50” value [1] was 108 nM. It also gave a pIC50 (KM12 luc) of 7.47, a pIC50 (Tel-TrkA) of 7.36 and a pIC50 (Tel-TrkC) of 7.85.

`CC1(c2cccc(F)c2)CCCN1c1ccc2ncc(-c3ccc(C#N)cc3)n2n1` (stereo not drawn) [Table 3-Compound 91] was tested, and the pIC50 (Tel-TrkB) was 6.89, the pIC50 (parental BaF3 cells) was 5.08 and the “BaF3 TRKA-NGF CTG IC 50” value [1] was 720 nM. The pIC50 (KM12 luc) was 7.08, the pIC50 (Tel-TrkA) was 6.53 and the pIC50 (Tel-TrkC) was 7.48.

With `N#Cc1cc(-c2cnc3ccc(N4CCCC4c4cc(F)ccc4F)nn23)ccc1F` (stereo not drawn) [Table 5-Compound 1] the pIC50 (Tel-TrkB) was 7.42, the pIC50 (parental BaF3 cells) was 5.12 and the “BaF3 TRKA-NGF CTG IC 50” value [1] was 43 nM. It also gave a pIC50 (KM12 luc) of 8.04, a pIC50 (Tel-TrkA) of 7.29 and a pIC50 (Tel-TrkC) of 7.68.

With `N#Cc1cc(-c2cnc3ccc(N4CCCC4c4cc(F)ccc4F)nn23)ccc1N1CCOCC1` (stereo not drawn) [Table 5-Compound 2] the pIC50 (Tel-TrkB) was 7.82, the pIC50 (parental BaF3 cells) was 5.21 and the “BaF3 TRKA-NGF CTG IC 50” value [1] was 49 nM. For the same molecule, the pIC50 (KM12 luc) was 7.54, the pIC50 (Tel-TrkA) was 7.59 and the pIC50 (Tel-TrkC) was 8.08.

In the case of `CN(C)c1ccc(-c2cnc3ccc(N4CCCC4c4cc(F)ccc4F)nn23)cc1C#N` (stereo not drawn) [Table 5-Compound 4], the pIC50 (Tel-TrkB) was 7.22, the pIC50 (parental BaF3 cells) was 5.27 and the “BaF3 TRKA-NGF CTG IC 50” value [1] was 203 nM. The pIC50 (KM12 luc) was 7.05, the pIC50 (Tel-TrkA) was 6.78 and the pIC50 (Tel-TrkC) was 7.49.

`N#Cc1ccc(-c2cnc3ccc(N4CCCC4c4cc(F)ccc4F)nn23)cc1N1CCC(N2CCOCC2)CC1` (stereo not drawn) [Table 5-Compound 13] was tested, and the pIC50 (Tel-TrkB) was 7.46, the pIC50 (parental BaF3 cells) was 5.32 and the “BaF3 TRKA-NGF CTG IC 50” value [1] was 5.3 nM. The pIC50 (KM12 luc) was 8.12, the pIC50 (Tel-TrkA) was 8.46 and the pIC50 (Tel-TrkC) was 8.77.

With `N#Cc1ccc(-c2cnc3ccc(N4CCCC4c4cc(F)ccc4F)nn23)cc1OCCN1CCOCC1` (stereo not drawn) [Table 5-Compound 17] the pIC50 (Tel-TrkB) was 7.82, the pIC50 (parental BaF3 cells) was less than 5.00 and the “BaF3 TRKA-NGF CTG IC 50” value [1] was 34 nM. It also gave a pIC50 (KM12 luc) of 8.06, a pIC50 (Tel-TrkA) of 8.19 and a pIC50 (Tel-TrkC) of 8.51.

With `CN1CCC(Oc2cc(-c3cnc4ccc(N5CCCC5c5cc(F)ccc5F)nn34)ccc2C#N)C1` (stereo not drawn) [Table 5-Compound 22] the pIC50 (Tel-TrkB) was 7.06, the pIC50 (parental BaF3 cells) was 5.65 and the “BaF3 TRKA-NGF CTG IC 50” value [1] was 316 nM. For the same molecule, the pIC50 (KM12 luc) was 7.00, the pIC50 (Tel-TrkA) was 6.88 and the pIC50 (Tel-TrkC) was 7.57.

`CN(C)CCN(C)c1cc(-c2cnc3ccc(N4CCCC4c4cc(F)ccc4F)nn23)ccc1C#N` (stereo not drawn) [Table 5-Compound 23] was tested, and the pIC50 (Tel-TrkB) was 7.13, the pIC50 (parental BaF3 cells) was 5.43 and the “BaF3 TRKA-NGF CTG IC 50” value [1] was 111 nM. For the same molecule, the pIC50 (KM12 luc) was 6.96, the pIC50 (Tel-TrkA) was 6.87 and the pIC50 (Tel-TrkC) was 7.80.

`Fc1cccc([C@H]2CCCN2c2ccc3ncc(-c4cccc(N5CCN(c6cccnc6)CC5)n4)n3n2)c1` [Table 7-Compound 255] was tested, and the pIC50 (Tel-TrkB) was 7.77, the pIC50 (parental BaF3 cells) was less than 4.96 and the “BaF3 TRKA-NGF CTG IC 50” value [1] was 9 nM. The pIC50 (KM12 luc) was 8.22, the pIC50 (Tel-TrkA) was 8.05 and the pIC50 (Tel-TrkC) was 8.52.
